This note sets out measurements from patent publication US20230257351A1, “SUBSTITUTED N-[…] HAVING P2X4 RECEPTOR ANTAGONISTIC ACTIVITY” (Bayer Aktiengesellschaft, priority 2020, published 2023).

pIC50: −log10 of the molar value.

For this assay, the target named is T1, human P2X4 (Homo sapiens, UniProt Q99571).
T1 construct: expressed in transfected cells
T1 sequence (Q99571 1-388): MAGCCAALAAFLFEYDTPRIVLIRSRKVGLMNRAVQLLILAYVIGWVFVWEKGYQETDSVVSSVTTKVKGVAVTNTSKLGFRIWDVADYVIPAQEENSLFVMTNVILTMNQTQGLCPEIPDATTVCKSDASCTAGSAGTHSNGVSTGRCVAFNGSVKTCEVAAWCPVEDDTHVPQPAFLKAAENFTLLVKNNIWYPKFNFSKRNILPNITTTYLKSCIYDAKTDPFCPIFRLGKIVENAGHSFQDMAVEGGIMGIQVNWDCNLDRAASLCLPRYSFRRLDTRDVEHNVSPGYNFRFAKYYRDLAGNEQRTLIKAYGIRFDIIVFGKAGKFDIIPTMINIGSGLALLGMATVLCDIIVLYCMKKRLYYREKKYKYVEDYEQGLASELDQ
Description: Human P2X4 HEK Cell FLIPR Assay. Format: cell-based. Particulars: HEK293 stably expressing human P2X4, agonist Bz-ATP 3 μM (EC80). The essentials:
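HEK293 cells stably expressing human P2X4 were loaded with Fluo8-AM (30 min, 37 °C, HBSS/HEPES pH 7.4 with probenecid), then preincubated 30 min at room temperature with compound, 25 μM–1 nM final, 0.5% DMSO. Bz-ATP-evoked calcium fluorescence was read on FLIPR; data were normalized to agonist control and given a four-parameter fit for IC50.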

Turning to `CC(=O)N(c1ccc(F)c(F)c1)c1cc(NC(=O)Cc2ccc(F)cc2Cl)ccn1` [Example 68, N-{4-[2-(2-chloro-4-fluorophenyl)acetamido]pyridin-2-yl}-N-(3,4-difluorophenyl)acetamide], the “Human P2X4 HEK Cells (FLIPR Assay) avg Efficacy” value is 95%. For the same compound, the pIC50 (usually the negative decadic logarithm of the IC50, by convention in mol/L) (read-out: Human P2X4 HEK Cells (FLIPR Assay) avg IC50) was 6.39.
